Patent US20260041649A1, “ANTI-INFLAMMATORY AGENT” (WATANABE OYSTER LABORATORY, CO., LTD., priority 2023, published 2026)

Tested on: RAW264.7 cells cultured with LPS
Assay: Cell death of RAW264.7 cells cultured with LPS
Type: cell-based, mouse
Conditions: DHMBA 1 or 10 μM, LPS 100 ng/ml, 48 hours, subconfluent cells
Method: In FIG. 5A, to examine the effect on cell proliferation, RAW264.7 cells (1×10^5/ml/well) were cultured for 3 days in a DMEM culture medium containing 10% FBS, 1% P/S, and 1% fungizone in the control group (1% ethanol as final concentration) with or without LPS (1, 10, 50, 100, 500 ng/ml). In FIG. 5B, cells (1×10^5/ml per well) were cultured for 3 days in a DMEM culture medium containing 10% FBS, 1% P/S, and 1% fungizone in the DHMBA-treated group (1 or 10 μM) with or without LPS (100 ng/ml). In FIG. 5C, to examine the effect on cell death, cells that had reached subconfluence after 3 days of culture were cultured for another 48 hours in the control group (1% ethanol) with or without LPS (1, 10, 50, 100, or 500 ng/ml). […] After the culture, the number of cells attached to the dish was counted. […]
In an additional experiment, to determine the effect of DHMBA on RAW264.7 cell death, RAW264.7 cells were cultured in the presence of LPS. […] After the culture, the cells were detached with a Ca^2+/Mg^2+ free PBS solution with 0.05% trypsin/EDTA (0.1 ml per well) as described in the “Cell proliferation assay” section, and the cells were counted as described in the “Cell count” section below. […]
The number of viable cells was counted under a microscope (Olympus MTV-3) using a hemocytometer (Sigma-Aldrich) and a cell counter (H-102P, Line Seiki Co., Ltd., Tokyo, Japan).

**Q.** How did the “effect on RAW264.7 cell death in the presence of LPS” value turn out when `COc1c(O)cc(CO)cc1O` [DHMBA, 3,5-dihydroxy-4-methoxybenzyl alcohol] was run?
**A.** exhibited
